Row | melting point [°C] | SMILES
1 | 102 | O=C1COc2ccccc21
2 | 88 to 92 | N#CC1(c2ccc(Cl)cc2)CCCCC1
3 | 22 to 23 | CCCCCCCCC=CCCCCCCCC(=O)OC(=O)CCCCCCCC=CCCCCCCCC
4 | 118 | CCOC(=O)C(C)(/C=C1\C(=O)C2(C)CCC1C2(C)C)/C=C1\C(=O)C2(C)CCC1C2(C)C (stereo unspecified)
5 | 161 | Cc1cccc(N/N=C2/C(=O)N(c3ccccc3)N=C2C(F)(F)F)c1
6 | 86 | OCc1ccc(OCc2ccccc2)cc1
7 | 163 to 164 | CCC1C(C=NO)=NC(C)(C)N1O (stereo unspecified)
8 | 186 | O=CC=P(c1ccccc1)(c1ccccc1)c1ccccc1
9 | 116 to 117 | O=S(=O)(c1ccccc1)n1c(CBr)cc2ccccc21
10 | 170 to 175 | CC(C)(C)[C@H]1CC[C@H](C(=O)O)CC1
11 | 34 | CCOCCOC(=O)c1ccccc1C(=O)OCCOCC
12 | 184 | Cc1ccc2cnn(C)c2n1
13 | 103 to 105 | CCC1C(C=NC(C)(C)C)=NC(C)(C)N1O (stereo unspecified)
14 | 12 | ClCCCOc1ccccc1
15 | 162 | COc1ccc2c(c1)CCc1ccc3c(c1-2)c(=O)n(-c1ccccc1)n3C
16 | 298 to 301 | Fc1cc2nc(S)[nH]c2cc1Cl
17 | 185 to 187 | Nc1ncnc2c1ncn2C1CC(O)C(CO)O1 (stereo unspecified)
18 | 213 | Nc1ccccc1/C=C/c1nc2ccccc2[nH]1
19 | 129 | Cc1cc(CO)c(O)c(CO)c1
20 | 103 | N#Cc1ccc(S(=O)(=O)Cl)c(Cl)c1
21 | 121 to 123 | OC1C2CCC1C1C=CC2O1 (stereo unspecified)

Row | melting point [°C] | SMILES
22 | 124 to 126 | COC(=O)c1cc(N)cc(O)c1
23 | 224 | CC(=O)Nc1cc(NC(C)=O)c(C=Cc2ccccc2)cc1C=Cc1ccccc1
24 | 248 to 249 | O=C(O)C1CCN(c2ncnc3ccsc23)CC1
25 | 172 to 176 | CCC1(c2cccc(O)c2)CCCCN(C)C1=O (stereo unspecified)
26 | 103 | FC(F)(F)c1ccc2cc[nH]c2c1
27 | 141 | CC(O)Cn1c(=O)c2c(ncn2C)n(C)c1=O (stereo unspecified)
28 | 248 | O=c1c(O)c(-c2ccc(O)c(O)c2)oc2cc(OC3OC(CO)C(O)C(O)C3O)cc(O)c12 (stereo unspecified)
29 | 188 | CC(C)C1=C(O)C(=O)C2=C(CC(O)C3C(C)(C)CCCC23C)C1=O (stereo unspecified)
30 | 169 | NNC(=O)c1ccc(Cl)cc1Cl
31 | 205 to 207 | Cc1ccc(Sc2ncccc2C(N)=O)cc1
32 | 44 | CC(C)(Cc1ccc(F)cc1)N=Cc1ccccc1
33 | 120 | CC(C(=O)O)C(C)C(=O)O (stereo unspecified)
34 | 174 | c1cc2c3c(c4ccc5ccccc5c4cc3c1)CC2
35 | -19 | C#CCCCCCCCCCC
36 | 145 to 148 | CC(C)(C)c1ccc(C(N)=S)cc1
37 | 183 | CCOc1ccc(NS(=O)(=O)c2ccc(N)cc2)nn1
38 | 76 to 77 | O=Cc1cccn1S(=O)(=O)c1ccccc1
39 | 92 to 93 | COc1ccc(Br)c(C(=O)CC#N)c1
40 | -69.5 | C=C(C)C(=O)CC
41 | 73 to 76 | O=C1CCC(c2ccccc2)c2ccccc21 (stereo unspecified)
42 | 72.5 | N#CCC(=O)N1CCCC1

Row | melting point [°C] | SMILES
43 | 146 | O=C1c2ccccc2C(=O)C1c1ccc(Cl)cc1
44 | 78 | CC1(O)Cc2ccccc21 (stereo unspecified)
45 | 113 to 118 | Cc1nc(-c2ccc(-c3ccccc3)cc2)cs1
46 | 240 to 242 | Cn1ccc(-c2ccc(C(=O)O)cc2)n1
47 | 82 | CC(=O)C(C#N)(Cc1ccc([N+](=O)[O-])cc1)c1ccccc1 (stereo unspecified)
48 | 85 | CCOc1ccc(OCC)c(N)c1
49 | 67 to 71 | CC(C)(C)OC(=O)N1CCN(c2ccccc2CO)CC1
50 | 119 | O=C(Cl)c1ccc2nccnc2c1
51 | 175 | Nc1c(Cl)cc([N+](=O)[O-])cc1Br
52 | 190 | NC(=O)/C(=N\Nc1cccc(C(F)(F)F)c1)c1nc2ccccc2s1
53 | 93 to 95 | Nc1c(Br)cc(Cl)cc1Br
54 | 236 | CN(C)c1ccc(N=Nc2ccc([N+](=O)[O-])cc2)cc1
55 | 99 | CCOC(=O)C(C(C)=O)C(=O)c1ccc(C(=O)C(C(C)=O)C(=O)OCC)cc1 (stereo unspecified)
56 | 96 to 97 | CC(=O)OCCOc1cc(OC(C)=O)c2c(=O)c(OC(C)=O)c(-c3ccc(OCCOC(C)=O)c(OCCOC(C)=O)c3)oc2c1
57 | 65 | Cc1ccc(N=C=S)c([N+](=O)[O-])c1
58 | 151 to 154 | CC(C)n1cc(C#N)c(=O)n(Cc2ccccc2)c1=O
59 | 234 to 235 | O=C1CCC(c2ccc(NC(=O)c3cccc(C(F)(F)F)c3)cc2)=NN1
60 | 81 | Oc1cc(Br)cc(Br)c1
61 | 115 | CCC(=O)C1CCCCC1C(C)(C)C(=O)O (stereo unspecified)
62 | 45.5 | Cc1cc(Cl)c(Cl)c(Cl)c1
63 | 113 to 114 | CC(=NO)c1cccs1

Row | melting point [°C] | SMILES
64 | -20 | CCc1cccc(C(C)=O)c1
65 | 189 | C[C@H](CCC(=O)O)[C@H]1CC[C@H]2[C@@H]3CC[C@H]4CC(=O)CC[C@]4(C)[C@H]3CC[C@]12C
66 | 101 | CC(C)(C)c1csc(N)n1
67 | 69.8 | COC(=O)[C@H](C)On1c(C)csc1=S
68 | 115 | CC(C)c1cc(C(C)C)c(S(N)(=O)=O)c(C(C)C)c1
69 | -61 | CCCCCCc1ccccc1
70 | 156 to 161 | O=C(O)COc1ccc(Br)cc1
71 | -25.2 | CC(C)(C)C(=O)C(C)(C)C
72 | 115 | N#CC1(c2ccccc2)CCC(=O)CC1
73 | 72 | O=CCC=O
74 | -50 | FC(F)(F)C(F)(F)C(F)(F)C(F)(F)C(F)(F)I
75 | 111 | CCOC(=O)c1cc(Cl)c(O)c(Cl)c1
76 | 111 | CC(OCC(=O)c1ccccc1)=C(C#N)c1ccccc1
77 | 81.5 to 83 | O=C1Cc2cccc(Br)c21
78 | 127 to 132 | O=C(O)c1ccccc1CCc1ccccc1
79 | 263 | O=C1CC(c2cccc(C3=NN(c4ccccc4)C(=O)C3)c2)=NN1c1ccccc1
80 | 138 to 139 | O=c1c(Cl)c(Cl)cnn1Cc1ccc(Cl)cc1
81 | 165 | O=C(OCCOc1cc(OCCOC(=O)c2ccccc2)c([N+](=O)[O-])cc1[N+](=O)[O-])c1ccccc1
82 | 203 to 205 | COc1cc(C=CC(=O)O)cc(OC)c1O

Row | SMILES | melting point [°C]
83 | C[C@]12CCC(=O)C[C@@H]1CC[C@@H]1[C@@H]2CC[C@]2(C)C(=O)C=C[C@@H]12 | 172 to 173
84 | CNC(=O)Oc1ccccc1C1OCCO1 | 114
85 | CC12CC(=CO)C(=O)CC1CCC1C2CCC2(C)C1CCC2(C)O (stereo unspecified) | 188
86 | ClC1=C(Cl)C(Cl)(C2(Cl)C(Cl)=C(Cl)C(Cl)=C2Cl)C(Cl)=C1Cl | 122
87 | Oc1cccc(N2CCNCC2)c1 | 207
88 | CC(O)CN(CC(C)O)CC(C)O (stereo unspecified) | 48 to 52
89 | CSC(=O)c1c(C(F)F)nc(C(F)(F)F)c(C(=O)SC)c1CC(C)C | 65
90 | Fc1cccc(Cl)c1CCl | 7
91 | COc1ccc(CO)cc1O | 136

Source: a melting point compilation (Tetko et al.)
